{"source": "the supplement of paper PMC10307832", "experiment_in_all_cases": "relative viability (nuclei count vs DMSO), 5 days (fraction); higher = more cells survive", "key": {"ABC-1": {"system": "ABC-1", "in_short": "(§1)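 Relative viability was taken as the ratio of nuclei in treated wells to nuclei in vehicle wells. Lung cancer cell lines in 1536-well plates received compounds by pin tool one day after seeding, either one drug alone or a fixed anchor-drug dose plus five library-drug doses (not always all listed) in √10 steps. Nuclei were counted on 4× images after 5 days of treatment, and values are medians of duplicate plates.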"}, "CAL-12T": {"system": "CAL-12T", "in_short": "as §1"}, "ChaGo-K-1": {"system": "ChaGo-K-1", "in_short": "as §1"}, "EPLC-272H": {"system": "EPLC-272H", "in_short": "as §1"}, "HCC-366": {"system": "HCC-366", "in_short": "as §1"}, "HCC-78": {"system": "HCC-78", "in_short": "as §1"}, "LC-2-ad": {"system": "LC-2-ad", "in_short": "as §1"}, "LOU-NH91": {"system": "LOU-NH91", "in_short": "as §1"}, "LU99A": {"system": "LU99A", "in_short": "as §1"}, "NCI-H1395": {"system": "NCI-H1395", "in_short": "as §1"}, "NCI-H1651": {"system": "NCI-H1651", "in_short": "as §1"}, "NCI-H1734": {"system": "NCI-H1734", "in_short": "as §1"}, "NCI-H1755": {"system": "NCI-H1755", "in_short": "as §1"}, "NCI-H1793": {"system": "NCI-H1793", "in_short": "as §1"}, "NCI-H1944": {"system": "NCI-H1944", "in_short": "as §1"}, "NCI-H2087": {"system": "NCI-H2087", "in_short": "as §1"}, "NCI-H2170": {"system": "NCI-H2170", "in_short": "as §1"}, "NCI-H2228": {"system": "NCI-H2228", "in_short": "as §1"}, "NCI-H2405": {"system": "NCI-H2405", "in_short": "as §1"}, "NCI-H3122": {"system": "NCI-H3122", "in_short": "as §1"}, "NCI-H460": {"system": "NCI-H460", "in_short": "as §1"}, "PC-3 [JPC-3]": {"system": "PC-3 [JPC-3]", "in_short": "as §1"}, "RERF-LC-KJ": {"system": "RERF-LC-KJ", "in_short": "as §1"}, "UMC-11": {"system": "UMC-11", "in_short": "as §1"}}}
{"compound": "CC(C)Oc1cc(Nc2nc(N[C@@H](C)c3ccc(F)cn3)ncc2Cl)n[nH]1", "note": "[AZ23] + O=C(CCCCCCC(=O)Nc1ccccc1)NO [Vorinostat] (partner 1 µM)", "values": [{"measurement": "relative viability", "setting": "ABC-1; first compound 0.01 µM", "result": 0.957}, {"measurement": "relative viability", "setting": "ABC-1; first compound 0.03162 µM", "result": 1.15}, {"measurement": "relative viability", "setting": "ABC-1; first compound 0.3162 µM", "result": 1.19}, {"measurement": "relative viability", "setting": "CAL-12T; first compound 0.03162 µM", "result": 1.03}, {"measurement": "relative viability", "setting": "CAL-12T; first compound 0.3162 µM", "result": 0.88}, {"measurement": "relative viability", "setting": "ChaGo-K-1; first compound 0.01 µM", "result": 0.936}, {"measurement": "relative viability", "setting": "ChaGo-K-1; first compound 0.03162 µM", "result": 0.798}, {"measurement": "relative viability", "setting": "ChaGo-K-1; first compound 0.3162 µM", "result": 0.82}, {"measurement": "relative viability", "setting": "EPLC-272H; first compound 0.03162 µM", "result": 0.543}, {"measurement": "relative viability", "setting": "EPLC-272H; first compound 0.3162 µM", "result": 0.423}, {"measurement": "relative viability", "setting": "HCC-366; first compound 0.01 µM", "result": 0.299}, {"measurement": "relative viability", "setting": "HCC-366; first compound 0.03162 µM", "result": 0.428}, {"measurement": "relative viability", "setting": "HCC-366; first compound 0.3162 µM", "result": 0.441}, {"measurement": "relative viability", "setting": "HCC-78; first compound 0.01 µM", "result": 0.432}, {"measurement": "relative viability", "setting": "HCC-78; first compound 0.03162 µM", "result": 0.401}, {"measurement": "relative viability", "setting": "HCC-78; first compound 0.3162 µM", "result": 0.341}, {"measurement": "relative viability", "setting": "LC-2-ad; first compound 0.01 µM", "result": 0.86}, {"measurement": "relative viability", "setting": "LC-2-ad; first compound 0.03162 µM", "result": 0.789}, {"measurement": "relative viability", "setting": "LC-2-ad; first compound 0.3162 µM", "result": 0.716}, {"measurement": "relative viability", "setting": "LOU-NH91; first compound 0.01 µM", "result": 0.864}, {"measurement": "relative viability", "setting": "LOU-NH91; first compound 0.03162 µM", "result": 1.03}, {"measurement": "relative viability", "setting": "LOU-NH91; first compound 0.3162 µM", "result": 0.964}, {"measurement": "relative viability", "setting": "LU99A; first compound 0.01 µM", "result": 0.516}, {"measurement": "relative viability", "setting": "LU99A; first compound 0.03162 µM", "result": 0.6}, {"measurement": "relative viability", "setting": "LU99A; first compound 0.3162 µM", "result": 0.493}, {"measurement": "relative viability", "setting": "NCI-H1395; first compound 0.03162 µM", "result": 0.685}, {"measurement": "relative viability", "setting": "NCI-H1395; first compound 0.3162 µM", "result": 0.799}, {"measurement": "relative viability", "setting": "NCI-H1651; first compound 0.01 µM", "result": 0.524}, {"measurement": "relative viability", "setting": "NCI-H1651; first compound 0.03162 µM", "result": 0.545}, {"measurement": "relative viability", "setting": "NCI-H1651; first compound 0.3162 µM", "result": 0.584}, {"measurement": "relative viability", "setting": "NCI-H1734; first compound 0.01 µM", "result": 0.64}, {"measurement": "relative viability", "setting": "NCI-H1734; first compound 0.03162 µM", "result": 0.88}, {"measurement": "relative viability", "setting": "NCI-H1734; first compound 0.3162 µM", "result": 1.06}, {"measurement": "relative viability", "setting": "NCI-H1755; first compound 0.01 µM", "result": 0.854}, {"measurement": "relative viability", "setting": "NCI-H1755; first compound 0.03162 µM", "result": 0.714}, {"measurement": "relative viability", "setting": "NCI-H1755; first compound 0.3162 µM", "result": 0.805}, {"measurement": "relative viability", "setting": "NCI-H1793; first compound 0.01 µM", "result": 0.679}, {"measurement": "relative viability", "setting": "NCI-H1793; first compound 0.03162 µM", "result": 0.811}, {"measurement": "relative viability", "setting": "NCI-H1793; first compound 0.3162 µM", "result": 0.892}, {"measurement": "relative viability", "setting": "NCI-H1944; first compound 0.01 µM", "result": 0.409}, {"measurement": "relative viability", "setting": "NCI-H1944; first compound 0.03162 µM", "result": 0.625}, {"measurement": "relative viability", "setting": "NCI-H1944; first compound 0.3162 µM", "result": 0.631}, {"measurement": "relative viability", "setting": "NCI-H2087; first compound 0.01 µM", "result": 0.969}, {"measurement": "relative viability", "setting": "NCI-H2087; first compound 0.03162 µM", "result": 0.995}, {"measurement": "relative viability", "setting": "NCI-H2087; first compound 0.3162 µM", "result": 0.668}, {"measurement": "relative viability", "setting": "NCI-H2170; first compound 0.01 µM", "result": 0.958}, {"measurement": "relative viability", "setting": "NCI-H2170; first compound 0.03162 µM", "result": 0.937}, {"measurement": "relative viability", "setting": "NCI-H2170; first compound 0.3162 µM", "result": 0.906}, {"measurement": "relative viability", "setting": "NCI-H2228; first compound 0.01 µM", "result": 0.72}, {"measurement": "relative viability", "setting": "NCI-H2228; first compound 0.03162 µM", "result": 0.585}, {"measurement": "relative viability", "setting": "NCI-H2228; first compound 0.3162 µM", "result": 0.628}, {"measurement": "relative viability", "setting": "NCI-H2405; first compound 0.01 µM", "result": 0.922}, {"measurement": "relative viability", "setting": "NCI-H2405; first compound 0.03162 µM", "result": 1.13}, {"measurement": "relative viability", "setting": "NCI-H2405; first compound 0.3162 µM", "result": 1.01}, {"measurement": "relative viability", "setting": "NCI-H3122; first compound 0.01 µM", "result": 1.45}, {"measurement": "relative viability", "setting": "NCI-H3122; first compound 0.03162 µM", "result": 1.05}, {"measurement": "relative viability", "setting": "NCI-H3122; first compound 0.3162 µM", "result": 1.03}, {"measurement": "relative viability", "setting": "NCI-H460; first compound 0.01 µM", "result": 0.252}, {"measurement": "relative viability", "setting": "NCI-H460; first compound 0.03162 µM", "result": 1.06}, {"measurement": "relative viability", "setting": "NCI-H460; first compound 0.3162 µM", "result": 0.774}, {"measurement": "relative viability", "setting": "PC-3 [JPC-3]; first compound 0.01 µM", "result": 0.721}, {"measurement": "relative viability", "setting": "PC-3 [JPC-3]; first compound 0.03162 µM", "result": 0.867}, {"measurement": "relative viability", "setting": "PC-3 [JPC-3]; first compound 0.3162 µM", "result": 0.826}, {"measurement": "relative viability", "setting": "RERF-LC-KJ; first compound 0.01 µM", "result": 0.711}, {"measurement": "relative viability", "setting": "RERF-LC-KJ; first compound 0.03162 µM", "result": 0.704}, {"measurement": "relative viability", "setting": "RERF-LC-KJ; first compound 0.3162 µM", "result": 0.675}, {"measurement": "relative viability", "setting": "UMC-11; first compound 0.01 µM", "result": 0.281}, {"measurement": "relative viability", "setting": "UMC-11; first compound 0.03162 µM", "result": 0.384}, {"measurement": "relative viability", "setting": "UMC-11; first compound 0.3162 µM", "result": 0.357}]}
